Source: the supplement of paper PMC4862054
Several values for one entry are separate records, joined by “and”; a condition that tells them apart may be missing. Identical values can stand only once.

Test system: HCC1143
Assay: normalised viability (% of control), CellTiter-Blue; higher = more viable cells (about 100 = DMSO control)
Conditions: 10000 nM; incubation time: 72 h
How it was run: (§1)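 After 72 h on compound-loaded 384-well plates, breast cancer cell lines received 2.5 µl CellTiter-Blue reagent for 2 h at 37 °C. Fluorescence at 560/590 nm was scaled per plate so that vehicle was 100 and a positive kill control was 0. The value stands for normalised viability at a single listed concentration of the series.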

SMILES | normalised viability [%]
c1ccc(C2CN3CCSC3=N2)cc1 (stereo not given) [Tetramisole] | 109
COc1cc(Nc2ncc(F)c(Nc3ccc4c(n3)NC(=O)C(C)(C)O4)n2)cc(OC)c1OC [R406] | 84.4
O=P(O)(NCCCl)NCCCl [Ifosfamide mustard] | 97.5

Test system: SK-BR-3
Assay: as above
Conditions: 1 nM; incubation time: 72 h
How it was run: as §1

SMILES | normalised viability [%]
CC(C)(C)c1cc(NC(=O)Nc2ccc(-c3cn4c(n3)sc3cc(OCCN5CCOCC5)ccc34)cc2)no1 [Quizartinib] | 88.4

Same assay, conditions: 10 nM; incubation time: 72 h

SMILES | normalised viability
CS(=O)(=O)CCNCc1ccc(-c2ccc3ncnc(Nc4ccc(OCc5cccc(F)c5)c(Cl)c4)c3c2)o1 [Lapatinib] | 78.8% and 92.4%
COC1=C2C[C@@H](C)C[C@H](OC)[C@H](O)[C@@H](C)/C=C(\C)[C@H](OC(N)=O)[C@@H](OC)/C=C\C=C(/C)C(=O)NC(=CC1=O)C2=O [Geldanamycin] | 101%
c1ccc(C2CN3CCSC3=N2)cc1 (stereo not given) [Tetramisole] | 107%
COc1cc(Nc2ncc(F)c(Nc3ccc4c(n3)NC(=O)C(C)(C)O4)n2)cc(OC)c1OC [R406] | 104%
O=P(O)(NCCCl)NCCCl [Ifosfamide mustard] | 101%

Same assay, conditions: 100 nM; incubation time: 72 h

SMILES | normalised viability [%]
CC(C)(C)c1cc(NC(=O)Nc2ccc(-c3cn4c(n3)sc3cc(OCCN5CCOCC5)ccc34)cc2)no1 [Quizartinib] | 93.5

Same assay, conditions: 1000 nM; incubation time: 72 h

SMILES | normalised viability
CC(C)(C)c1cc(NC(=O)Nc2ccc(-c3cn4c(n3)sc3cc(OCCN5CCOCC5)ccc34)cc2)no1 [Quizartinib] | 96.5%
CS(=O)(=O)CCNCc1ccc(-c2ccc3ncnc(Nc4ccc(OCc5cccc(F)c5)c(Cl)c4)c3c2)o1 [Lapatinib] | 18.2% and 22.2%
COC1=C2C[C@@H](C)C[C@H](OC)[C@H](O)[C@@H](C)/C=C(\C)[C@H](OC(N)=O)[C@@H](OC)/C=C\C=C(/C)C(=O)NC(=CC1=O)C2=O [Geldanamycin] | 14.9%
c1ccc(C2CN3CCSC3=N2)cc1 (stereo not given) [Tetramisole] | 101%
COc1cc(Nc2ncc(F)c(Nc3ccc4c(n3)NC(=O)C(C)(C)O4)n2)cc(OC)c1OC [R406] | 98.3%
O=P(O)(NCCCl)NCCCl [Ifosfamide mustard] | 107%

Same assay, conditions: 10000 nM; incubation time: 72 h

SMILES | normalised viability
CS(=O)(=O)CCNCc1ccc(-c2ccc3ncnc(Nc4ccc(OCc5cccc(F)c5)c(Cl)c4)c3c2)o1 [Lapatinib] | 6.7% and 8.97%
COC1=C2C[C@@H](C)C[C@H](OC)[C@H](O)[C@@H](C)/C=C(\C)[C@H](OC(N)=O)[C@@H](OC)/C=C\C=C(/C)C(=O)NC(=CC1=O)C2=O [Geldanamycin] | 9.38%
c1ccc(C2CN3CCSC3=N2)cc1 (stereo not given) [Tetramisole] | 105%
COc1cc(Nc2ncc(F)c(Nc3ccc4c(n3)NC(=O)C(C)(C)O4)n2)cc(OC)c1OC [R406] | 112%
O=P(O)(NCCCl)NCCCl [Ifosfamide mustard] | 111%

Test system: MDA-MB-468
Assay: as above
Conditions: 1 nM; incubation time: 72 h
How it was run: as §1

SMILES | normalised viability [%]
CC(C)(C)c1cc(NC(=O)Nc2ccc(-c3cn4c(n3)sc3cc(OCCN5CCOCC5)ccc34)cc2)no1 [Quizartinib] | 108

Same assay, conditions: 10 nM; incubation time: 72 h

SMILES | normalised viability
CS(=O)(=O)CCNCc1ccc(-c2ccc3ncnc(Nc4ccc(OCc5cccc(F)c5)c(Cl)c4)c3c2)o1 [Lapatinib] | 100% and 105%
COC1=C2C[C@@H](C)C[C@H](OC)[C@H](O)[C@@H](C)/C=C(\C)[C@H](OC(N)=O)[C@@H](OC)/C=C\C=C(/C)C(=O)NC(=CC1=O)C2=O [Geldanamycin] | 99%
c1ccc(C2CN3CCSC3=N2)cc1 (stereo not given) [Tetramisole] | 101%
COc1cc(Nc2ncc(F)c(Nc3ccc4c(n3)NC(=O)C(C)(C)O4)n2)cc(OC)c1OC [R406] | 104%
O=P(O)(NCCCl)NCCCl [Ifosfamide mustard] | 98.5%

Same assay, conditions: 100 nM; incubation time: 72 h

SMILES | normalised viability [%]
CC(C)(C)c1cc(NC(=O)Nc2ccc(-c3cn4c(n3)sc3cc(OCCN5CCOCC5)ccc34)cc2)no1 [Quizartinib] | 108

Same assay, conditions: 1000 nM; incubation time: 72 h

SMILES | normalised viability
CC(C)(C)c1cc(NC(=O)Nc2ccc(-c3cn4c(n3)sc3cc(OCCN5CCOCC5)ccc34)cc2)no1 [Quizartinib] | 86.1%
CS(=O)(=O)CCNCc1ccc(-c2ccc3ncnc(Nc4ccc(OCc5cccc(F)c5)c(Cl)c4)c3c2)o1 [Lapatinib] | 64.2% and 68.2%
COC1=C2C[C@@H](C)C[C@H](OC)[C@H](O)[C@@H](C)/C=C(\C)[C@H](OC(N)=O)[C@@H](OC)/C=C\C=C(/C)C(=O)NC(=CC1=O)C2=O [Geldanamycin] | 11.2%
c1ccc(C2CN3CCSC3=N2)cc1 (stereo not given) [Tetramisole] | 106%
COc1cc(Nc2ncc(F)c(Nc3ccc4c(n3)NC(=O)C(C)(C)O4)n2)cc(OC)c1OC [R406] | 87.3%
O=P(O)(NCCCl)NCCCl [Ifosfamide mustard] | 93.9%

Same assay, conditions: 10000 nM; incubation time: 72 h

SMILES | normalised viability
CS(=O)(=O)CCNCc1ccc(-c2ccc3ncnc(Nc4ccc(OCc5cccc(F)c5)c(Cl)c4)c3c2)o1 [Lapatinib] | 11.8% and 16.3%
COC1=C2C[C@@H](C)C[C@H](OC)[C@H](O)[C@@H](C)/C=C(\C)[C@H](OC(N)=O)[C@@H](OC)/C=C\C=C(/C)C(=O)NC(=CC1=O)C2=O [Geldanamycin] | 8.18%
c1ccc(C2CN3CCSC3=N2)cc1 (stereo not given) [Tetramisole] | 120%
COc1cc(Nc2ncc(F)c(Nc3ccc4c(n3)NC(=O)C(C)(C)O4)n2)cc(OC)c1OC [R406] | 101%
O=P(O)(NCCCl)NCCCl [Ifosfamide mustard] | 86.9%

Test system: MFM-223
Assay: as above
Conditions: 1 nM; incubation time: 72 h
How it was run: as §1

SMILES | normalised viability [%]
CC(C)(C)c1cc(NC(=O)Nc2ccc(-c3cn4c(n3)sc3cc(OCCN5CCOCC5)ccc34)cc2)no1 [Quizartinib] | 86

Same assay, conditions: 10 nM; incubation time: 72 h

SMILES | normalised viability
CS(=O)(=O)CCNCc1ccc(-c2ccc3ncnc(Nc4ccc(OCc5cccc(F)c5)c(Cl)c4)c3c2)o1 [Lapatinib] | 92.8% and 95.8%
COC1=C2C[C@@H](C)C[C@H](OC)[C@H](O)[C@@H](C)/C=C(\C)[C@H](OC(N)=O)[C@@H](OC)/C=C\C=C(/C)C(=O)NC(=CC1=O)C2=O [Geldanamycin] | 103%
c1ccc(C2CN3CCSC3=N2)cc1 (stereo not given) [Tetramisole] | 101%
COc1cc(Nc2ncc(F)c(Nc3ccc4c(n3)NC(=O)C(C)(C)O4)n2)cc(OC)c1OC [R406] | 92.4%
O=P(O)(NCCCl)NCCCl [Ifosfamide mustard] | 92.4%
